Assay results as given in patent US10300065B2, “Method of treating or prevention of atherothrombotic events in patients with history of myocardial infarction” (ASTRAZENECA AB, priority 2015, dated 2019).

Assays:
[1] = test system: patients with a history of myocardial infarction; experiment: PEGASUS-TIMI 54 analysis by time from P2Y12 inhibitor withdrawal to randomization; conditions: for All-cause mortality, HR / Cor. heart dis. death, HR / Fatal bleeding, HR / Intracranial bleeding, HR / Myocardial infarction, HR / Stroke, HR / TIMI Major Bleeding, HR / TIMI Major or Minor Bleeding, HR / All-cause mortality, (%) / Cor. heart dis. death, (%) / Fatal bleeding, (%) / Intracranial bleeding, (%) / Myocardial infarction, (%) / Stroke, (%) / TIMI Major Bleeding, (%) / TIMI Major or Minor Bleeding, (%): at 3 years
Source text: Patients in PEGASUS-TIMI 54 were further categorized by time from last P2Y12 inhibitor (days: ≤30 days, 31-360, >360).

[2] = room temperature; crystalline powder; cited from earlier work
[3] = 60 mg and 90 mg pooled, between 31 days and one year following withdrawal
[4] = 60 mg and 90 mg pooled, within 30 days following withdrawal of dual antiplatelet therapy
[5] = >1 year from P2Y12 inhibitor withdrawal, ticagrelor 60 mg bid vs. placebo
[6] = >1 year from P2Y12 inhibitor withdrawal, ticagrelor 60 mg bid
[7] = >1 year from P2Y12 inhibitor withdrawal, ticagrelor 90 mg bid vs. placebo
[8] = >1 year from P2Y12 inhibitor withdrawal, ticagrelor 90 mg bid
[9] = >1 year from P2Y12 inhibitor withdrawal, ticagrelor pooled vs. placebo
[10] = >1 year from P2Y12 inhibitor withdrawal, ticagrelor pooled
[11] = >30 days to ≤1 year from P2Y12 inhibitor withdrawal, ticagrelor 60 mg bid vs. placebo
[12] = >30 days to ≤1 year from P2Y12 inhibitor withdrawal, ticagrelor 60 mg bid
[13] = >30 days to ≤1 year from P2Y12 inhibitor withdrawal, ticagrelor 90 mg bid vs. placebo
[14] = >30 days to ≤1 year from P2Y12 inhibitor withdrawal, ticagrelor 90 mg bid
[15] = >30 days to ≤1 year from P2Y12 inhibitor withdrawal, ticagrelor pooled vs. placebo
[16] = >30 days to ≤1 year from P2Y12 inhibitor withdrawal, ticagrelor pooled
[17] = pooled doses, withdrawal within 30 days
[18] = ≤30 days from P2Y12 inhibitor withdrawal, ticagrelor 60 mg bid vs. placebo
[19] = ≤30 days from P2Y12 inhibitor withdrawal, ticagrelor 60 mg bid
[20] = ≤30 days from P2Y12 inhibitor withdrawal, ticagrelor 90 mg bid vs. placebo
[21] = ≤30 days from P2Y12 inhibitor withdrawal, ticagrelor 90 mg bid
[22] = ≤30 days from P2Y12 inhibitor withdrawal, ticagrelor pooled vs. placebo
[23] = ≤30 days from P2Y12 inhibitor withdrawal, ticagrelor pooled

## CCCSc1nc(N[C@@H]2C[C@H]2c2ccc(F)c(F)c2)c2nnn([C@@H]3C[C@H](OCCO)[C@@H](O)[C@H]3O)c2n1 [Ticagrelor, (1S,2S,3R,5S)-3-[7-{[(1R,2S)-2-(3,4-difluorophenyl)cyclopropyl]amino}-5-(propylthio)-3H-[1,2,3]-triazolo[4,5-d]pyrimidin-3-yl]-5-(2-hydroxyethoxy)cyclopentane-1,2-diol]
[1]; [3]
  absolute reduction in the risk of a subsequent atherothrombotic event: 1.1%
  reduction in the risk of developing a subsequent atherothrombotic event: 14%
[1]; [4]
  absolute reduction in the risk of a subsequent atherothrombotic event: 2.2%
  reduction in the risk of developing a subsequent atherothrombotic event: 27%
[1]; [5]
  All-cause mortality, HR: 1.34
  Cor. heart dis. death, HR: 0.96
  Fatal bleeding, HR: 1.11
  Intracranial bleeding, HR: 1.56
  Myocardial infarction, HR: 0.95
  Stroke, HR: 0.95
  TIMI Major Bleeding, HR: 2.1
  TIMI Major or Minor Bleeding, HR: 2.11
[1]; [6]
  All-cause mortality, (%): (4.6) %
  Cor. heart dis. death, (%): (1.2) %
  Fatal bleeding, (%): (0.1) %
  Intracranial bleeding, (%): (0.6) %
  Myocardial infarction, (%): (4.1) %
  Stroke, (%): (1.2) %
  TIMI Major Bleeding, (%): (1.9) %
  TIMI Major or Minor Bleeding, (%): (2.3) %
[1]; [7]
  All-cause mortality, HR: 1.31
  Cor. heart dis. death, HR: 0.77
  Intracranial bleeding, HR: 1.42
  Myocardial infarction, HR: 0.84
  Stroke, HR: 1.13
  TIMI Major Bleeding, HR: 3.28
  TIMI Major or Minor Bleeding, HR: 3.82
[1]; [8]
  All-cause mortality, (%): (4.7) %
  Cor. heart dis. death, (%): (1.1) %
  Fatal bleeding, (%): (0) %
  Intracranial bleeding, (%): (0.5) %
  Myocardial infarction, (%): (3.6) %
  Stroke, (%): (1.5) %
  TIMI Major Bleeding, (%): (3) %
  TIMI Major or Minor Bleeding, (%): (4.4) %
[1]; [9]
  All-cause mortality, HR: 1.32
  Cor. heart dis. death, HR: 0.86
  Fatal bleeding, HR: 0.57
  Intracranial bleeding, HR: 1.48
  Myocardial infarction, HR: 0.9
  Stroke, HR: 1.04
  TIMI Major Bleeding, HR: 2.67
  TIMI Major or Minor Bleeding, HR: 2.94
[1]; [10]
  All-cause mortality, (%): (4.6) %
  Cor. heart dis. death, (%): (1.2) %
  Fatal bleeding, (%): (0) %
  Intracranial bleeding, (%): (0.6) %
  Myocardial infarction, (%): (3.9) %
  Stroke, (%): (1.3) %
  TIMI Major Bleeding, (%): (2.4) %
  TIMI Major or Minor Bleeding, (%): (3.5) %
[1]; [11]
  All-cause mortality, HR: 0.76
  Cor. heart dis. death, HR: 0.70
  Fatal bleeding, HR: 0.87
  Intracranial bleeding, HR: 1.97
  Myocardial infarction, HR: 0.88
  Stroke, HR: 0.82
  TIMI Major Bleeding, HR: 2.94
  TIMI Major or Minor Bleeding, HR: 3.07
[1]; [12]
  All-cause mortality, (%): (3.8) %
  Cor. heart dis. death, (%): (1.4) %
  Fatal bleeding, (%): (0.3) %
  Intracranial bleeding, (%): (0.6) %
  Myocardial infarction, (%): (4.6) %
  Stroke, (%): (1.4) %
  TIMI Major Bleeding, (%): (2.7) %
  TIMI Major or Minor Bleeding, (%): (3.8) %
[1]; [13]
  All-cause mortality, HR: 1.01
  Cor. heart dis. death, HR: 0.71
  Fatal bleeding, HR: 0.24
  Intracranial bleeding, HR: 1.63
  Myocardial infarction, HR: 0.82
  Stroke, HR: 1.02
  TIMI Major Bleeding, HR: 2.85
  TIMI Major or Minor Bleeding, HR: 3.17
[1]; [14]
  All-cause mortality, (%): (4.8) %
  Cor. heart dis. death, (%): (1.4) %
  Fatal bleeding, (%): (0.1) %
  Intracranial bleeding, (%): (0.5) %
  Myocardial infarction, (%): (4.2) %
  Stroke, (%): (1.9) %
  TIMI Major Bleeding, (%): (2.8) %
  TIMI Major or Minor Bleeding, (%): (3.9) %
[1]; [15]
  All-cause mortality, HR: 0.88
  Cor. heart dis. death, HR: 0.70
  Fatal bleeding, HR: 0.57
  Intracranial bleeding, HR: 1.81
  Myocardial infarction, HR: 0.85
  Stroke, HR: 0.91
  TIMI Major Bleeding, HR: 2.89
  TIMI Major or Minor Bleeding, HR: 3.11
[1]; [16]
  All-cause mortality, (%): (4.3) %
  Cor. heart dis. death, (%): (1.4) %
  Fatal bleeding, (%): (0.2) %
  Intracranial bleeding, (%): (0.5) %
  Myocardial infarction, (%): (4.4) %
  Stroke, (%): (1.7) %
  TIMI Major Bleeding, (%): (2.7) %
  TIMI Major or Minor Bleeding, (%): (3.8) %
[1]; doses pooled, withdrawal ≤30 days, beyond 90 days
  HR for cardiovascular death, myocardial infarction, or stroke vs. placebo: 0.76
[1]; doses pooled, withdrawal ≤30 days, first 90 days after randomization
  HR for cardiovascular death, myocardial infarction, or stroke vs. placebo: 0.54
[1]; more than one year after withdrawal of previous dual antiplatelet therapy
  reduction in the risk of developing a subsequent atherothrombotic event: did not experience a reduction
[1]; pooled doses, time from last P2Y12 inhibitor 31-360 days
  HR for cardiovascular death, myocardial infarction, or stroke vs. placebo: 0.86
[1]; pooled doses, time from last P2Y12 inhibitor >360 days
  HR for cardiovascular death, myocardial infarction, or stroke vs. placebo: 1.01
[1]; pooled doses, time from last P2Y12 inhibitor ≤30 days
  HR for cardiovascular death, myocardial infarction, or stroke vs. placebo: 0.73
[1]; [17]
  HR for cardiovascular death vs. placebo: 0.78
  HR for myocardial infarction vs. placebo: 0.72
  HR for stroke vs. placebo: 0.64
[1]; pooled doses, ≤30 days of stopping, qualifying MI <2 years prior to randomization
  HR for cardiovascular death, myocardial infarction, or stroke vs. placebo: 0.73
[1]; pooled doses, ≤30 days of stopping, qualifying MI ≥2 years prior to randomization
  HR for cardiovascular death, myocardial infarction, or stroke vs. placebo: 0.71
[1]; [18]
  All-cause mortality, HR: 0.80
  Cor. heart dis. death, HR: 0.78
  Fatal bleeding, HR: 2.15
  Intracranial bleeding, HR: 1.53
  Myocardial infarction, HR: 0.78
  Stroke, HR: 0.64
  TIMI Major Bleeding, HR: 3.3
  TIMI Major or Minor Bleeding, HR: 3.43
[1]; [19]
  All-cause mortality, (%): (4.3) %
  Cor. heart dis. death, (%): (1.5) %
  Fatal bleeding, (%): (0.4) %
  Intracranial bleeding, (%): (0.8) %
  Myocardial infarction, (%): (5.2) %
  Stroke, (%): (1.5) %
  TIMI Major Bleeding, (%): (2.6) %
  TIMI Major or Minor Bleeding, (%): (4.1) %
[1]; [20]
  All-cause mortality, HR: 1.02
  Cor. heart dis. death, HR: 0.67
  Fatal bleeding, HR: 2.25
  Intracranial bleeding, HR: 2.07
  Myocardial infarction, HR: 0.67
  Stroke, HR: 0.64
  TIMI Major Bleeding, HR: 3.44
  TIMI Major or Minor Bleeding, HR: 3.57
[1]; [21]
  All-cause mortality, (%): (5.1) %
  Cor. heart dis. death, (%): (1.1) %
  Fatal bleeding, (%): (0.2) %
  Intracranial bleeding, (%): (0.7) %
  Myocardial infarction, (%): (4.6) %
  Stroke, (%): (1.3) %
  TIMI Major Bleeding, (%): (2.4) %
  TIMI Major or Minor Bleeding, (%): (3.8) %
[1]; [22]
  All-cause mortality, HR: 0.91
  Cor. heart dis. death, HR: 0.72
  Fatal bleeding, HR: 2.2
  Intracranial bleeding, HR: 1.79
  Myocardial infarction, HR: 0.72
  Stroke, HR: 0.64
  TIMI Major Bleeding, HR: 3.36
  TIMI Major or Minor Bleeding, HR: 3.50
[1]; [23]
  All-cause mortality, (%): (4.7) %
  Cor. heart dis. death, (%): (1.3) %
  Fatal bleeding, (%): (0.3) %
  Intracranial bleeding, (%): (0.7) %
  Myocardial infarction, (%): (4.9) %
  Stroke, (%): (1.4) %
  TIMI Major Bleeding, (%): (2.5) %
  TIMI Major or Minor Bleeding, (%): (4.0%
[2]
  aqueous solubility: approximately 10 μg/mL
